Test [1] has as its target Bcl-2 protein (histag-Bcl-2, UniProtKB P10415) (Homo sapiens (Human), UniProt P10415). Put plainly: Inhibition of Bcl-2 by the fluorescence polarisation technique. It is filed as binding. The following applies: fluorescence polarisation test; method A, or method B where underlined (underlining not visible); read-out: IC50 (nM) Bcl-2 FP. An excerpt:
Inhibition of Bcl-2 by the fluorescence polarisation technique

For test [2], the system named is RS4;11 leukaemia tumour line. In words: In vitro cytotoxicity, Microculture Tetrazolium Assay (MTT). The following applies: RS4;11 cells, 48 hours exposure. The format is cell-based. Here is the method:
The cytotoxicity studies were carried out on the RS4;11 leukaemia tumour line.
The cells are distributed onto microplates and exposed to the test compounds for 48 hours. The cell viability is then quantified by a colorimetric assay, the Microculture Tetrazolium Assay (Cancer Res., 1987, 47, 939-942).

Drawing on patent US9765056B2, “Indole and pyrrole compounds, a process for their preparation and pharmaceutical compositions containing them” (LES LABORATOIRES SERVIER, priority 2013, dated 2017), this text covers IC50 for 19 molecules.

Where a name gives a salt, the structure may show the parent alone.

Chain of Bcl-2 protein (P10415 whole entry): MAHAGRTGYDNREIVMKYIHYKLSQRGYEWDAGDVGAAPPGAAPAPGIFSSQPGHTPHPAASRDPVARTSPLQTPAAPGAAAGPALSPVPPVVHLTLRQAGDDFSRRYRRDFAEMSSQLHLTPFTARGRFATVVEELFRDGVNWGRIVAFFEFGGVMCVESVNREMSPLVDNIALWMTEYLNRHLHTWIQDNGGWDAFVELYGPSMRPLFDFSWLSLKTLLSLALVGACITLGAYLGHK

One may read the IC50 as the concentration at which inhibition is half-maximal. Regarding `CN1CCN(C[C@@H]2Cc3ccccc3CN2C(=O)c2cc3c(cc2-n2cc(C(=O)N(c4ccc(O)cc4)c4ccc(F)c(F)c4)c4ccccc42)OCO3)CC1` [Example 56, N-(3,4-Difluorophenyl)-N-(4-hydroxyphenyl)-1-(6-{[(3S)-3-[(4-methylpiperazin-1-yl)methyl]-3,4-dihydroisoquinolin-2(1H)-yl]carbonyl}-1,3-benzodioxol-5-yl)-1H-indole-3-carboxamide], the results for the IC50 in test [1] and in test [2] (Homo sapiens) were 5 nM and 135 nM, respectively.

As for `Cc1ccc(N(C(=O)c2cn(-c3cc(Br)ccc3C(=O)N3Cc4ccccc4C[C@H]3CN3CCN(C)CC3)c3ccccc23)c2ccc(O)cc2)cc1` [Example 57, 1-(5-Bromo-2-{[(3S)-3-[(4-methylpiperazin-1-yl)methyl]-3,4-dihydroisoquinolin-2(1H)-yl]carbonyl}phenyl)-N-(4-hydroxyphenyl)-N-(4-methylphenyl)-1H-indole-3-carboxamide], the concentration for half-maximal inhibition (IC50) came to 13.4 nM in test [1] and 267 nM in test [2] (Homo sapiens).

For `CN1CCN(C[C@@H]2Cc3ccccc3CN2C(=O)c2cc3c(cc2-n2cc(C(=O)N(c4ccc(O)cc4)c4ccc(F)c(Cl)c4)c4ccccc42)OCO3)CC1` [Example 58, N-(3-Chloro-4-fluorophenyl)-N-(4-hydroxyphenyl)-1-(6-{[(3S)-3-[(4-methylpiperazin-1-yl)methyl]-3,4-dihydroisoquinolin-2(1H)-yl]carbonyl}-1,3-benzodioxol-5-yl)-1H-indole-3-carboxamide hydrochloride], the values for the IC50 in test [1] and in test [2] (Homo sapiens) were 20.5 nM and 190 nM, respectively.

Regarding `CN1CCN(C[C@@H]2Cc3ccccc3CN2C(=O)c2ccc(Br)cc2-n2cc(C(=O)N(c3ccc(O)cc3)c3ccc(Cl)cc3)c3ccccc32)CC1` [Example 59, 1-(5-Bromo-2-{[(3S)-3-[(4-methylpiperazin-1-yl)methyl]-3,4-dihydroisoquinolin-2(1H)-yl]carbonyl}phenyl)-N-(4-chlorophenyl)-N-(4-hydroxyphenyl)-1H-indole-3-carboxamide], the IC50 in test [1] was 19.2 nM; in test [2] (Homo sapiens), 206 nM.

As for `CC(=O)Oc1ccc(N(C(=O)c2cn(-c3cc4c(cc3C(=O)N3Cc5ccccc5C[C@H]3CN3CCN(C)CC3)OCO4)c3ccccc23)c2ccc(C)cc2)cc1` [Example 60, 4-[(4-Methylphenyl){[1-(6-{[(3S)-3-[(4-methylpiperazin-1-yl)methyl]-3,4-dihydroisoquinolin-2(1H)-yl]carbonyl}-1,3-benzodioxol-5-yl)-1H-indol-3-yl]-carbonyl}amino]phenyl acetate], the IC50 amounted to 206 nM in test [1] and 89.5 nM in test [2].

As to `Cc1cc(C(=O)N(c2ccc(O)cc2)c2ccc(O)cc2)cn1-c1cc(Br)ccc1C(=O)N1Cc2ccccc2C[C@H]1CN1CCN(C)CC1` [Example 61, 1-(5-Bromo-2-{[(3S)-3-[(4-methylpiperazin-1-yl)methyl]-3,4-dihydroisoquinolin-2(1H)-yl]carbonyl}phenyl)-N,N-bis(4-hydroxyphenyl)-5-methyl-1H-pyrrole-3-carboxamide], the IC50 in test [1] worked out at 7.7 nM; in test [2] (Homo sapiens), 204 nM.

As for `Cc1cc(C(=O)N(c2ccc(O)cc2)c2ccc(Cl)cc2)cn1-c1cc(Br)ccc1C(=O)N1Cc2ccccc2C[C@H]1CN1CCN(C)CC1` [Example 62, 1-(5-Bromo-2-{[(3S)-3-[(4-methylpiperazin-1-yl)methyl]-3,4-dihydroisoquinolin-2(1H)-yl]carbonyl}phenyl)-N-(4-chlorophenyl)-N-(4-hydroxyphenyl)-5-methyl-1H-pyrrole-3-carboxamide], the IC50 in test [1] came to 7.5 nM; in test [2] (Homo sapiens) it was 205 nM.

For the molecule `Cc1ccc(N(C(=O)c2cn(-c3cc4c(cc3C(=O)N3Cc5ccccc5C[C@H]3CN3CCN(C)CC3)OCO4)c3ccccc23)c2ccc(O)c(Cl)c2)cc1` [Example 63, N-(3-Chloro-4-hydroxyphenyl)-N-(4-methylphenyl)-1-(6-{[(3S)-3-[(4-methylpiperazin-1-yl)methyl]-3,4-dihydroisoquinolin-2(1H)-yl]carbonyl}-1,3-benzodioxol-5-yl)-1H-indole-3-carboxamide hydrochloride], the IC50 in test [1] turned out to be 168 nM; in test [2] (Homo sapiens) it was 1510 nM.

Take `CC(C)c1ccc(N(C(=O)c2cn(-c3cc4c(cc3C(=O)N3Cc5ccccc5C[C@H]3CN3CCN(C)CC3)OCO4)c3ccccc23)c2ccc(O)c(Cl)c2)cc1` [Example 64, N-(3-Chloro-4-hydroxyphenyl)-1-(6-{[(3S)-3-[(4-methylpiperazin-1-yl)methyl]-3,4-dihydroisoquinolin-2(1H)-yl]carbonyl}-1,3-benzodioxol-5-yl)-N-[4-(propan-2-yl)phenyl]-1H-indole-3-carboxamide hydrochloride]: the IC50 in test [1] came out at 296 nM; in test [2] (Homo sapiens), 1360 nM.

On to `Cc1cc(C(=O)N(c2ccc(O)cc2)c2ccc(Cl)cc2)cn1-c1cc(Cl)ccc1C(=O)N1Cc2ccccc2C[C@H]1CN1CCN(C)CC1` [Example 65, 1-(5-Chloro-2-{[(3S)-3-[(4-methylpiperazin-1-yl)methyl]-3,4-dihydroisoquinolin-2(1H)-yl]carbonyl}phenyl)-N-(4-chlorophenyl)-N-(4-hydroxyphenyl)-5-methyl-1H-pyrrole-3-carboxamide], for which the IC50 in test [1] was 5.1 nM; in test [2] (Homo sapiens), 130 nM.

Turning to `Cc1cc(C(=O)N(c2ccc(O)cc2)c2ccc(F)cc2)cn1-c1cc(Cl)ccc1C(=O)N1Cc2ccccc2C[C@H]1CN1CCN(C)CC1` [Example 66, 1-(5-Chloro-2-{[(3S)-3-[(4-methylpiperazin-1-yl)methyl]-3,4-dihydroisoquinolin-2(1H)-yl]carbonyl}phenyl)-N-(4-fluorophenyl)-N-(4-hydroxyphenyl)-5-methyl-1H-pyrrole-3-carboxamide], the IC50 was found to be 6.6 nM in test [1] and 148 nM in test [2] (Homo sapiens).

As for `Cc1cc(C(=O)N(c2ccc(O)cc2)c2ccc(O)cc2)cn1-c1cc(Cl)ccc1C(=O)N1Cc2ccccc2C[C@H]1CN1CCN(C)CC1` [Example 67, 1-(5-Chloro-2-{[(3S)-3-[(4-methylpiperazin-1-yl)methyl]-3,4-dihydroisoquinolin-2(1H)-yl]carbonyl}phenyl)-N,N-bis(4-hydroxyphenyl)-5-methyl-1H-pyrrole-3-carboxamide], the IC50 in test [1] was determined as 5.9 nM; in test [2] (Homo sapiens), 101 nM.

Take `Cc1ccc(N(C(=O)c2cn(-c3cc4c(cc3C(=O)N3Cc5ccccc5C[C@H]3CN3CCN(C)CC3)OCO4)c3ccccc23)c2ccc3[nH]ncc3c2)cc1` [Example 68, N-(1H-Indazol-5-yl)-N-(4-methylphenyl)-1-(6-{[(3S)-3-[(4-methylpiperazin-1-yl)methyl]-3,4-dihydroisoquinolin-2(1H)-yl]carbonyl}-1,3-benzodioxol-5-yl)-1H-indole-3-carboxamide hydrochloride]: the IC50 in test [1] was 79.7 nM; in test [2] (Homo sapiens), 856 nM.

`CN1CCN(C[C@@H]2Cc3ccccc3CN2C(=O)c2ccc(Br)cc2-n2cc(C(=O)N(c3ccc(O)cc3)c3ccc4c(ccn4C)c3)c3ccccc32)CC1` [Example 69, 1-(5-Bromo-2-{[(3S)-3-[(4-methylpiperazin-1-yl)methyl]-3,4-dihydroisoquinolin-2(1H)-yl]carbonyl}phenyl)-N-(4-hydroxyphenyl)-N-(1-methyl-1H-indol-5-yl)-1H-indole-3-carboxamide hydrochloride]: the IC50 was found to be 9 nM in test [1] and 67.6 nM in test [2] (Homo sapiens).

Take `Cc1cc(C(=O)N(c2ccc(O)cc2)c2ccc3c(ccn3C)c2)cn1-c1cc(Br)ccc1C(=O)N1Cc2ccccc2C[C@H]1CN1CCN(C)CC1` [Example 70, 1-(5-Bromo-2-{[(3S)-3-[(4-methylpiperazin-1-yl)methyl]-3,4-dihydroisoquinolin-2(1H)-yl]carbonyl}phenyl)-N-(4-hydroxyphenyl)-5-methyl-N-(1-methyl-1H-indol-5-yl)-1H-pyrrole-3-carboxamide hydrochloride]: the IC50 in test [1] was determined as 2.9 nM; in test [2] (Homo sapiens), 63.8 nM.

Consider `CN1CCN(C[C@@H]2Cc3ccccc3CN2C(=O)c2ccc(Br)cc2-n2cc(C(=O)N(c3ccc(O)cc3)c3ccc(F)cc3)c3ccccc32)CC1` [Example 71, 1-(5-Bromo-2-{[(3S)-3-[(4-methylpiperazin-1-yl)methyl]-3,4-dihydroisoquinolin-2(1H)-yl]carbonyl}phenyl)-N-(4-fluorophenyl)-N-(4-hydroxyphenyl)-1H-indole-3-carboxamide], for which the IC50 stood at 8.3 nM in test [1] and 196 nM in test [2] (Homo sapiens).

Consider `CN1CCN(C[C@@H]2Cc3ccccc3CN2C(=O)c2ccc(Cl)cc2-n2cc(C(=O)N(c3ccc(O)cc3)c3ccc4[nH]ccc4c3)c3ccccc32)CC1` [Example 72, 1-(5-Chloro-2-{[(3S)-3-[(4-methylpiperazin-1-yl)methyl]-3,4-dihydroisoquinolin-2(1H)-yl]carbonyl}phenyl)-N-(4-hydroxyphenyl)-N-(1H-indol-5-yl)-1H-indole-3-carboxamide], for which the IC50 in test [1] was found to be 4.5 nM; in test [2] (Homo sapiens), 43.4 nM.

Take `CN1CCN(C[C@@H]2Cc3ccccc3CN2C(=O)c2ccc(Cl)cc2-n2cc(C(=O)N(c3ccc(O)cc3)c3ccc(O)cc3)c3ccccc32)CC1` [Example 73, 1-(5-Chloro-2-{[(3S)-3-[(4-methylpiperazin-1-yl)methyl]-3,4-dihydroisoquinolin-2(1H)-yl]carbonyl}phenyl)-N,N-bis(4-hydroxyphenyl)-1H-indole-3-carboxamide]: the IC50 in test [1] amounted to 3.9 nM; in test [2] (Homo sapiens), 51.4 nM.

Turning to `Cc1ccc(N(C(=O)c2cn(-c3cc(Cl)ccc3C(=O)N3Cc4ccccc4C[C@H]3CN3CCN(C)CC3)c3ccccc23)c2ccc(O)cc2)cc1` [Example 74, 1-(5-Chloro-2-{[(3S)-3-[(4-methylpiperazin-1-yl)methyl]-3,4-dihydroisoquinolin-2(1H)-yl]carbonyl}phenyl)-N-(4-hydroxyphenyl)-N-(4-methylphenyl)-1H-indole-3-carboxamide], the IC50 in test [1] stood at 4.2 nM; in test [2] (Homo sapiens) it was 162 nM.
